The source of these data is patent US20160237067A1, “SUBSTITUTED PHENYLALANINE DERIVATIVES” (BAYER PHARMA AKTIENGESELLSCHAFT, priority 2013, published 2016).

One experiment deals with human and animal plasma. The experiment can be described thus: Determination of anticoagulatory activity: activated partial thromboplastin time (aPTT) in plasma. It is filed as biochemical. As to conditions: C.K. Prest kit, 37° C., 3 minutes incubation, plasma species of Table B not stated. As to the method:
The anticoagulatory activity of the test substances is determined in vitro in human and animal plasma (for example mouse, rat, rabbit, pig and dog plasma). To this end, blood is drawn off in a mixing ratio of sodium citrate/blood of 1:9 using a 0.11 molar sodium citrate solution as receiver. Immediately after the blood has been drawn off, it is mixed thoroughly and centrifuged at about 4000 g for 15 minutes. The supernatant is pipetted off.
The activated partial thromboplastin time (aPTT) is determined in the presence of varying concentrations of test substance or the corresponding solvent using a commercial test kit (C.K. Prest from Diagnostica Stago). The test compounds are incubated with the plasma and the PTT reagent (cephalin, kaolin) at 37° C. for 3 minutes. Coagulation is then started by addition of a 25 mM aqueous calcium chloride solution, and the time when coagulation occurs is determined. The concentration of test substance which brings about a 1.5-fold extension of the aPTT is determined Activity data from this test are listed in Table B below: […]

The target in another experiment is T1, human factor XIa (Homo sapiens, UniProt P03951).
T1 construct: purchased Kordia
Kind of experiment: Measurement of FXIa inhibition (fluorogenic peptide substrate Boc-Glu(OBzl)-Ala-Arg-AMC). It is filed as biochemical. As to conditions: factor XIa from Kordia 0.45 nM; 15 min preincubation; 30 min at 22° C. As to the method:
The factor XIa inhibition of the substances according to the invention is determined using a biochemical test system which utilizes the reaction of a peptidic factor XIa substrate to determine the enzymatic activity of human factor XIa. Here, factor XIa cleaves from the peptic factor XIa substrate the C-terminal aminomethylcoumarin (AMC), the fluorescence of which is measured. The determinations are carried out in microtitre plates.
Test substances are dissolved in dimethyl sulphoxide and serially diluted in dimethyl sulphoxide (3000 μM to 0.0078 μM; resulting final concentrations in the test: 50 μM to 0.00013 μM). In each case 1 μl of the diluted substance solutions is placed into the wells of white microtitre plates from Greiner (384 wells). Subsequently, the following are added successively: 20 μl of assay buffer (50 mmol/l Tris buffer pH 7.4; 100 mmol/l sodium chloride; 5 mmol/l calcium chloride; 0.1% bovine serum albumin) and 20 μl of factor XIa from Kordia (0.45 nM in assay buffer). After 15 min of incubation, the enzyme reaction is started by addition of 20 μl of the factor XIa substrate Boc-Glu(OBzl)-Ala-Arg-AMC dissolved in assay buffer (10 μM in assay buffer) from Bachem, the mixture is incubated at room temperature (22° C.) for 30 min and fluorescence is then measured (excitation: 360 nm, emission: 460 nm). The measured emissions of the test batches with test substance are compared to those of control batches without test substance (only dimethyl sulphoxide instead of test substance in dimethyl sulphoxide), and IC50 values are calculated from the concentration/activity relationships.

Where a name gives a salt, the structure may show the parent alone.

T1 sequence (P03951 388-625 limits assumed): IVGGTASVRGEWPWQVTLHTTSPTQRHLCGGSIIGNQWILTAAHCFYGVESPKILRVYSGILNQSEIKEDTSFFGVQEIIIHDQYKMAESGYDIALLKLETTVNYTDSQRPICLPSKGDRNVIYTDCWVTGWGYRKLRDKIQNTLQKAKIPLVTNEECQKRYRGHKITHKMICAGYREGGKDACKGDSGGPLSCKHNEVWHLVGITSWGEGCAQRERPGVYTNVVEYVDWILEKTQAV
T1 sequence (P03951 19-387 partner limits assumed): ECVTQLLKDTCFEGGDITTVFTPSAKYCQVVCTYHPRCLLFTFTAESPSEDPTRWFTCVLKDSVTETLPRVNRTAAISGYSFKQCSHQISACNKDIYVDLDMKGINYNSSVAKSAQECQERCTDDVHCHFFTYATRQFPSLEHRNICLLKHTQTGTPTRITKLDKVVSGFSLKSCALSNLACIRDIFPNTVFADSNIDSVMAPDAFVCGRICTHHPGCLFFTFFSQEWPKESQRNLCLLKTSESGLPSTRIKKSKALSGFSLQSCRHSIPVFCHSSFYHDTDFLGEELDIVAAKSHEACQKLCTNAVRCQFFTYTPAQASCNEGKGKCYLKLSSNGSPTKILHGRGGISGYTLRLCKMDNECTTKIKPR

As usually defined, the IC50 is the concentration at which inhibition is half-maximal. Low values mean higher potency, high ones lower potency. Take `CCN(CC)CCNC(=O)c1cccc(-c2ccc(C[C@H](NC(=O)[C@H]3CC[C@H](CN)CC3)C(=O)Nc3ccc(-c4nn[nH]n4)cc3)cc2)c1` [Example 14, 4′-[(2S)-2-({[trans-4-(Aminomethyl)cyclohexyl]carbonyl}amino)-3-oxo-3-{[4-(2H-tetrazol-5-yl)phenyl]amino}propyl]-N-[2-(diethylamino)ethyl]biphenyl-3-carboxamide hydrochloride]: the “aPTT (concentration of test substance which brings about a 1.5-fold extension of the aPTT)” value in the experiment on human and animal plasma is 0.35 µmol/L. The molecule further came in with an IC50 at human factor XIa of 15 nM.

As to `CCOC(=O)c1cccc(-c2ccc(C[C@H](NC(=O)[C@H]3CC[C@H](CN)CC3)C(=O)Nc3ccc(-c4nn[nH]n4)cc3)cc2)c1F` [Example 8, Ethyl 4′-[(2S)-2-({[trans-4-(aminomethyl)cyclohexyl]carbonyl}amino)-3-oxo-3-{[4-(2H-tetrazol-5-yl)phenyl]amino}propyl]-2-fluorobiphenyl-3-carboxylate hydrochloride], the “aPTT (concentration of test substance which brings about a 1.5-fold extension of the aPTT)” value in the experiment with human and animal plasma was 0.51 µmol/L. In addition, 6.9 nM corresponded to half-maximal inhibition at human factor XIa (IC50).

As for `NC[C@H]1CC[C@H](C(=O)N[C@@H](Cc2ccc(-c3ccc(F)c(C(=O)NC4CCNCC4)c3)cc2)C(=O)Nc2ccc(-c3nn[nH]n3)cc2)CC1` [Example 35, 4′-[(2S)-2-({[trans-4-(Aminomethyl)cyclohexyl]carbonyl}amino)-3-oxo-3-{[4-(2H-tetrazol-5-yl)phenyl]amino}propyl]-4-fluoro-N-(piperidin-4-yl)biphenyl-3-carboxamide hydrochloride], the “aPTT (concentration of test substance which brings about a 1.5-fold extension of the aPTT)” value in the experiment on human and animal plasma was determined as 0.2 µmol/L. Inhibition at human factor XIa was half-maximal at 10 nM (IC50).

With `CCN(CC)CCCNC(=O)c1ccc(C)c(-c2ccc(C[C@H](NC(=O)[C@H]3CC[C@H](CN)CC3)C(=O)Nc3ccc(-c4nn[nH]n4)cc3)cc2)c1` [Example 19, 4′-[(2S)-2-({[trans-4-(Aminomethyl)cyclohexyl]carbonyl}amino)-3-oxo-3-{[4-(2H-tetrazol-5-yl)phenyl]amino}propyl]-N-[3-(diethylamino)propyl]-6-methylbiphenyl-3-carboxamide hydrochloride], the “aPTT (concentration of test substance which brings about a 1.5-fold extension of the aPTT)” value in the experiment on human and animal plasma stood at 0.26 µmol/L. Further, the IC50 against human factor XIa is 6.4 nM.

`Cc1ccc(S(=O)(=O)N(C)C)cc1-c1ccc(C[C@H](NC(=O)[C@H]2CC[C@H](CN)CC2)C(=O)Nc2ccc3[nH]c(=O)[nH]c3c2)cc1` [Example 25, trans-4-(Aminomethyl)-N-{(2S)-3-[5′-(dimethylsulphamoyl)-2′-methylbiphenyl-4-yl]-1-oxo-1-[(2-oxo-2,3-dihydro-1H-benzimidazol-5-yl)amino]propan-2-yl}cyclohexanecarboxamide hydrochloride]: in the experiment on human and animal plasma, the “aPTT (concentration of test substance which brings about a 1.5-fold extension of the aPTT)” value amounted to 0.15 µmol/L. In addition, on human factor XIa, 6.1 nM corresponded to half-maximal inhibition (IC50).

Take `Cc1ccc(C#N)cc1-c1ccc(C[C@H](NC(=O)[C@H]2CC[C@H](CN)CC2)C(=O)Nc2ccc(-c3nn[nH]n3)cc2)cc1` [Example 21, trans-4-(Aminomethyl)-N-[(2S)-3-(5′-cyano-2′-methylbiphenyl-4-yl)-1-oxo-1-{[4-(2H-tetrazol-5-yl)phenyl]amino}propan-2-yl]cyclohexanecarboxamide hydrochloride]: the “aPTT (concentration of test substance which brings about a 1.5-fold extension of the aPTT)” value with human and animal plasma worked out at 0.22 µmol/L. This molecule also showed an IC50 at human factor XIa of 8.3 nM.

Consider `Cc1ccc(C(=O)NC2CCNCC2)cc1-c1ccc(C[C@H](NC(=O)[C@H]2CC[C@H](CN)CC2)C(=O)Nc2ccc(-c3nn[nH]n3)cc2)cc1` [Example 9, hydrochloride], for which the “aPTT (concentration of test substance which brings about a 1.5-fold extension of the aPTT)” value in the experiment with human and animal plasma came out at 0.08 µmol/L. The same molecule displayed an IC50 against human factor XIa of 7.4 nM.

`Cc1c(F)cc(C(=O)NC2CCNCC2)cc1-c1ccc(C[C@H](NC(=O)[C@H]2CC[C@H](CN)CC2)C(=O)Nc2ccc(-c3nn[nH]n3)cc2)cc1` [Example 31, 4′-[(2S)-2-({[trans-4-(Aminomethyl)cyclohexyl]carbonyl}amino)-3-oxo-3-{[4-(2H-tetrazol-5-yl)phenyl]amino}propyl]-5-fluoro-6-methyl-N-(piperidin-4-yl)biphenyl-3-carboxamide hydrochloride]: the “aPTT (concentration of test substance which brings about a 1.5-fold extension of the aPTT)” value in the experiment with human and animal plasma came out at 0.16 µmol/L. The molecule also registered an IC50 against human factor XIa of 4.5 nM.

Take `Cc1ccc(-c2ccc(C[C@H](NC(=O)[C@H]3CC[C@H](CN)CC3)C(=O)Nc3ccc(-c4nn[nH]n4)cc3)cc2)cc1C(=O)N1CCOCC1` [Example 38, trans-4-(Aminomethyl)-N-[(2S)-3-[4′-methyl-3′-(morpholin-4-ylcarbonyl)biphenyl-4-yl]-1-oxo-1-{[4-(2H-tetrazol-5-yl)phenyl]amino}propan-2-yl]cyclohexanecarboxamide hydrochloride]: in the experiment with human and animal plasma, the “aPTT (concentration of test substance which brings about a 1.5-fold extension of the aPTT)” value is 0.22 µmol/L. For the same molecule, it took 4.1 nM to reach half-maximal inhibition on human factor XIa (IC50).

As for `Cc1ccc(N(C)C)cc1-c1ccc(C[C@H](NC(=O)[C@H]2CC[C@H](CN)CC2)C(=O)Nc2ccc(-c3nnn[nH]3)cc2)cc1` [Example 28, trans-4-(Aminomethyl)-N-[(2S)-3-[5′-(dimethylamino)-2′-methylbiphenyl-4-yl]-1-oxo-1-{[4-(1H-tetrazol-5-yl)phenyl]amino}propan-2-yl]cyclohexanecarboxamide hydrochloride], the “aPTT (concentration of test substance which brings about a 1.5-fold extension of the aPTT)” value with human and animal plasma is 0.26 µmol/L. Further, the IC50 against human factor XIa amounted to 1.5 nM.

Regarding `Cc1ccc(C(=O)NC2CCN(C)CC2)cc1-c1ccc(C[C@H](NC(=O)[C@H]2CC[C@H](CN)CC2)C(=O)Nc2ccc(-c3nc(C(F)(F)C(F)(F)C(=O)O)n[nH]3)cc2)cc1` [Example 42, 3-[5-(4-{[(2S)-2-({[trans-4-(Aminomethyl)cyclohexyl]carbonyl}amino)-3-{2′-methyl-5′-[(1-methylpiperidin-4-yl)carbamoyl]biphenyl-4-yl}propanoyl]amino}phenyl)-1H-1,2,4-triazol-3-yl]-2,2,3,3-tetrafluoropropanoic acid hydrochloride], the “aPTT (concentration of test substance which brings about a 1.5-fold extension of the aPTT)” value in the experiment with human and animal plasma turned out to be 0.16 µmol/L. The molecule further had an IC50 against human factor XIa of 6.8 nM.

Take `Cc1cc(C(=O)NC2CCC(N(C)C)CC2)cc(-c2ccc(C[C@H](NC(=O)[C@H]3CC[C@H](CN)CC3)C(=O)Nc3ccc(-c4nn[nH]n4)cc3)cc2)c1` (stereo partly drawn) [Example 37, 4′-[(2S)-24 {[trans-4-(Aminomethyl)cyclohexyl]carbonyl}amino)-3-oxo-3-{[4-(2H-tetrazol-5-yl)phenyl]amino}propyl]-N-[4-(dimethylamino)cyclohexyl]-5-methylbiphenyl-3-carboxamide hydrochloride]: in the experiment with human and animal plasma, the “aPTT (concentration of test substance which brings about a 1.5-fold extension of the aPTT)” value was found to be 0.14 µmol/L. On human factor XIa, this molecule yielded an IC50 of 7.5 nM.

`NC[C@H]1CC[C@H](C(=O)N[C@@H](Cc2ccc(-c3cccc(S(N)(=O)=O)c3)cc2)C(=O)Nc2ccc(-c3nnn[nH]3)cc2)CC1` [Example 4, trans-4-(Aminomethyl)-N-[(2S)-1-oxo-3-(3′-sulphamoylbiphenyl-4-yl)-1-{[4-(1H-tetrazol-5-yl)phenyl]amino}propan-2-yl]cyclohexanecarboxamide hydrochloride]: in the experiment on human and animal plasma, the “aPTT (concentration of test substance which brings about a 1.5-fold extension of the aPTT)” value came to 0.16 µmol/L. In addition, the midpoint of inhibition at human factor XIa, the IC50, lay at 3.1 nM.

For the molecule `CCc1ccc(C(=O)NCCN(CC)CC)cc1-c1ccc(C[C@H](NC(=O)[C@H]2CC[C@H](CN)CC2)C(=O)Nc2ccc(-c3nn[nH]n3)cc2)cc1` [Example 23, 4′-[(2S)-2-({[trans-4-(Aminomethyl)cyclohexyl]carbonyl}amino)-3-oxo-3-{[4-(2H-tetrazol-5-yl)phenyl]amino}propyl]-N-[2-(diethylamino)ethyl]-6-ethylbiphenyl-3-carboxamide hydrochloride], in the experiment on human and animal plasma, the “aPTT (concentration of test substance which brings about a 1.5-fold extension of the aPTT)” value amounted to 0.36 µmol/L. Also, half-maximal inhibition at human factor XIa (IC50) was put at 13 nM.

Turning to `Cc1ccc(S(=O)(=O)N2CCOCC2)cc1-c1ccc(C[C@H](NC(=O)[C@H]2CC[C@H](CN)CC2)C(=O)Nc2ccc(-c3nnn[nH]3)cc2)cc1` [Example 2, trans-4-(Aminomethyl)-N-[(2S)-3-[2′-methyl-5′-(morpholin-4-ylsulphonyl)biphenyl-4-yl]-1-oxo-1-{[4-(1H-tetrazol-5-yl)phenyl]amino}propan-2-yl]cyclohexanecarboxamide hydrochloride], the “aPTT (concentration of test substance which brings about a 1.5-fold extension of the aPTT)” value with human and animal plasma was 0.22 µmol/L. Besides, the IC50 against human factor XIa was determined as 0.1 nM.
